# Assay results reported in ChEMBL document CHEMBL3885881, “DrugMatrix”.
# Species on record: Rattus norvegicus
# Assay: DrugMatrix - Regimen: Daily Repeat
# Assay type: toxicity, organism-based, Sprague-Dawley
# Design: regimen Daily Repeat, gender Male, age 6-8 weeks
# Settings: in vivo, iv, vehicle 100 % SALINE; for ABSOLUTE BASOPHIL / ABSOLUTE EOSINOPHIL / ABSOLUTE LYMPHOCYTE / ABSOLUTE MONOCYTE / ABSOLUTE SEGMENTED NEUTROPHIL / BASOPHIL / EOSINOPHIL / ERYTHROCYTE COUNT / HEMATOCRIT / HEMOGLOBIN / LEUKOCYTE COUNT / LYMPHOCYTE / MEAN CORPUSCULAR HEMOGLOBIN / MEAN CORPUSCULAR HEMOGLOBIN CONCENTRATION / MEAN CORPUSCULAR VOLUME / MONOCYTE / NEUTROPHIL / NUCLEATED RED BLOOD CELLS / PLATELET COUNT: tissue Blood; for ALANINE AMINOTRANSFERASE / ALBUMIN / ALKALINE PHOSPHATASE / ASPARTATE AMINOTRANSFERASE / BLOOD UREA NITROGEN / CARBON DIOXIDE / CHLORIDE / CHOLESTEROL / CREATINE PHOSPHOKINASE / CREATININE / GLUCOSE / LACTATE DEHYDROGENASE / LIPASE / PHOSPHORUS / POTASSIUM / SODIUM / TOTAL BILIRUBIN / TOTAL PROTEIN: tissue Plasma
# [1] = 1 mg/kg, 72 h, dose level Low, time 3 day
# [2] = 1 mg/kg, 120 h, dose level Low, time 5 day
# [3] = 76 mg/kg, 72 h, dose level High, time 3 day
# [4] = 76 mg/kg, 120 h, dose level High, time 5 day
compound,measurement,setting,value
C=CCN1CC[C@]23c4c5ccc(O)c4O[C@H]2C(=O)CC[C@@]3(O)[C@H]1C5 [NALOXONE],ABSOLUTE BASOPHIL,[1],0 CELLS/uL
same,ABSOLUTE EOSINOPHIL,[1],394 CELLS/uL
same,ABSOLUTE LYMPHOCYTE,[1],14212 CELLS/uL
same,ABSOLUTE MONOCYTE,[1],229.67 CELLS/uL
same,ABSOLUTE SEGMENTED NEUTROPHIL,[1],1597.67 CELLS/uL
same,BASOPHIL,[1],0%
same,EOSINOPHIL,[1],2.33%
same,ERYTHROCYTE COUNT,[1],5.29 x10E6/uL
same,HEMATOCRIT,[1],33.37%
same,HEMOGLOBIN,[1],12.43 G/DL
same,LEUKOCYTE COUNT,[1],16.43 x10E3/uL
same,LYMPHOCYTE,[1],86.33%
same,MEAN CORPUSCULAR HEMOGLOBIN,[1],23.5 pg
same,MEAN CORPUSCULAR HEMOGLOBIN CONCENTRATION,[1],37.23 G/DL
same,MEAN CORPUSCULAR VOLUME,[1],63.13 fL
same,MONOCYTE,[1],1.33%
same,NEUTROPHIL,[1],10%
same,NUCLEATED RED BLOOD CELLS,[1],0 /100WBC
same,PLATELET COUNT,[1],1087.33 x10E3/uL
same,ALANINE AMINOTRANSFERASE,[1],52 u/L
same,ALBUMIN,[1],4.2 G/DL
same,ALKALINE PHOSPHATASE,[1],368.67 u/L
same,ASPARTATE AMINOTRANSFERASE,[1],96 u/L
same,BLOOD UREA NITROGEN,[1],16.33 mg/dL
same,CARBON DIOXIDE,[1],26.67 mmol/L
same,CHLORIDE,[1],103.67 MEQ/L
same,CHOLESTEROL,[1],70.67 mg/dL
same,CREATINE PHOSPHOKINASE,[1],678.67 u/L
same,CREATININE,[1],0.2 mg/dL
same,GLUCOSE,[1],178.33 mg/dL
same,LACTATE DEHYDROGENASE,[1],116.67 u/L
same,LIPASE,[1],9.67 u/L
same,PHOSPHORUS,[1],12.63 mg/dL
same,POTASSIUM,[1],6.32 MEQ/L
same,SODIUM,[1],144.23 MEQ/L
same,TOTAL BILIRUBIN,[1],0.2 mg/dL
same,TOTAL PROTEIN,[1],5.9 G/DL
same,ABSOLUTE BASOPHIL,[2],0 CELLS/uL
same,ABSOLUTE EOSINOPHIL,[2],66.67 CELLS/uL
same,ABSOLUTE LYMPHOCYTE,[2],9301.33 CELLS/uL
same,ABSOLUTE MONOCYTE,[2],105.67 CELLS/uL
same,ABSOLUTE SEGMENTED NEUTROPHIL,[2],1026.33 CELLS/uL
same,BASOPHIL,[2],0%
same,EOSINOPHIL,[2],0.67%
same,ERYTHROCYTE COUNT,[2],5.74 x10E6/uL
same,HEMATOCRIT,[2],35.87%
same,HEMOGLOBIN,[2],13.53 G/DL
same,LEUKOCYTE COUNT,[2],10.5 x10E3/uL
same,LYMPHOCYTE,[2],88.67%
same,MEAN CORPUSCULAR HEMOGLOBIN,[2],23.57 pg
same,MEAN CORPUSCULAR HEMOGLOBIN CONCENTRATION,[2],37.73 G/DL
same,MEAN CORPUSCULAR VOLUME,[2],62.5 fL
same,MONOCYTE,[2],1%
same,NEUTROPHIL,[2],9.67%
same,NUCLEATED RED BLOOD CELLS,[2],0.33 /100WBC
same,PLATELET COUNT,[2],1255.33 x10E3/uL
same,ALANINE AMINOTRANSFERASE,[2],45.67 u/L
same,ALBUMIN,[2],4.1 G/DL
same,ALKALINE PHOSPHATASE,[2],363 u/L
same,ASPARTATE AMINOTRANSFERASE,[2],88.67 u/L
same,BLOOD UREA NITROGEN,[2],15.67 mg/dL
same,CARBON DIOXIDE,[2],25 mmol/L
same,CHLORIDE,[2],106 MEQ/L
same,CHOLESTEROL,[2],63.67 mg/dL
same,CREATINE PHOSPHOKINASE,[2],400.33 u/L
same,CREATININE,[2],0.18 mg/dL
same,GLUCOSE,[2],177.67 mg/dL
same,LACTATE DEHYDROGENASE,[2],358 u/L
same,LIPASE,[2],8.33 u/L
same,PHOSPHORUS,[2],12.67 mg/dL
same,POTASSIUM,[2],6.28 MEQ/L
same,SODIUM,[2],144.83 MEQ/L
same,TOTAL BILIRUBIN,[2],0.23 mg/dL
same,TOTAL PROTEIN,[2],6.2 G/DL
same,ABSOLUTE BASOPHIL,[3],0 CELLS/uL
same,ABSOLUTE EOSINOPHIL,[3],219 CELLS/uL
same,ABSOLUTE LYMPHOCYTE,[3],13357.67 CELLS/uL
same,ABSOLUTE MONOCYTE,[3],239.33 CELLS/uL
same,ABSOLUTE SEGMENTED NEUTROPHIL,[3],1117.33 CELLS/uL
same,BASOPHIL,[3],0%
same,EOSINOPHIL,[3],1.33%
same,ERYTHROCYTE COUNT,[3],5.83 x10E6/uL
same,HEMATOCRIT,[3],36.57%
same,HEMOGLOBIN,[3],14.13 G/DL
same,LEUKOCYTE COUNT,[3],14.93 x10E3/uL
same,LYMPHOCYTE,[3],89.67%
same,MEAN CORPUSCULAR HEMOGLOBIN,[3],24.23 pg
same,MEAN CORPUSCULAR HEMOGLOBIN CONCENTRATION,[3],38.67 G/DL
same,MEAN CORPUSCULAR VOLUME,[3],62.73 fL
same,MONOCYTE,[3],1.67%
same,NEUTROPHIL,[3],7.33%
same,NUCLEATED RED BLOOD CELLS,[3],0 /100WBC
same,PLATELET COUNT,[3],1424 x10E3/uL
same,ALANINE AMINOTRANSFERASE,[3],46.67 u/L
same,ALBUMIN,[3],4.23 G/DL
same,ALKALINE PHOSPHATASE,[3],304.67 u/L
same,ASPARTATE AMINOTRANSFERASE,[3],92.33 u/L
same,BLOOD UREA NITROGEN,[3],15.67 mg/dL
same,CARBON DIOXIDE,[3],24.33 mmol/L
same,CHLORIDE,[3],110.67 MEQ/L
same,CHOLESTEROL,[3],46 mg/dL
same,CREATINE PHOSPHOKINASE,[3],383.33 u/L
same,CREATININE,[3],0.12 mg/dL
same,GLUCOSE,[3],104 mg/dL
same,LACTATE DEHYDROGENASE,[3],123 u/L
same,LIPASE,[3],7.67 u/L
same,PHOSPHORUS,[3],14.33 mg/dL
same,POTASSIUM,[3],5.64 MEQ/L
same,SODIUM,[3],148.07 MEQ/L
same,TOTAL BILIRUBIN,[3],0.1 mg/dL
same,TOTAL PROTEIN,[3],6.3 G/DL
same,ABSOLUTE BASOPHIL,[4],0 CELLS/uL
same,ABSOLUTE EOSINOPHIL,[4],118.67 CELLS/uL
same,ABSOLUTE LYMPHOCYTE,[4],15030.67 CELLS/uL
same,ABSOLUTE MONOCYTE,[4],170.67 CELLS/uL
same,ABSOLUTE SEGMENTED NEUTROPHIL,[4],1746.67 CELLS/uL
same,BASOPHIL,[4],0%
same,EOSINOPHIL,[4],0.67%
same,ERYTHROCYTE COUNT,[4],5.72 x10E6/uL
same,HEMATOCRIT,[4],35.6%
same,HEMOGLOBIN,[4],13.43 G/DL
same,LEUKOCYTE COUNT,[4],17.07 x10E3/uL
same,LYMPHOCYTE,[4],88%
same,MEAN CORPUSCULAR HEMOGLOBIN,[4],23.53 pg
same,MEAN CORPUSCULAR HEMOGLOBIN CONCENTRATION,[4],37.77 G/DL
same,MEAN CORPUSCULAR VOLUME,[4],62.37 fL
same,MONOCYTE,[4],1%
same,NEUTROPHIL,[4],10.33%
same,NUCLEATED RED BLOOD CELLS,[4],0 /100WBC
same,PLATELET COUNT,[4],1344.67 x10E3/uL
same,ALANINE AMINOTRANSFERASE,[4],49.67 u/L
same,ALBUMIN,[4],4.07 G/DL
same,ALKALINE PHOSPHATASE,[4],305 u/L
same,ASPARTATE AMINOTRANSFERASE,[4],80.33 u/L
same,BLOOD UREA NITROGEN,[4],13.67 mg/dL
same,CARBON DIOXIDE,[4],26.33 mmol/L
same,CHLORIDE,[4],105 MEQ/L
same,CHOLESTEROL,[4],52.33 mg/dL
same,CREATINE PHOSPHOKINASE,[4],250.33 u/L
same,CREATININE,[4],0.19 mg/dL
same,GLUCOSE,[4],172.67 mg/dL
same,LACTATE DEHYDROGENASE,[4],79 u/L
same,LIPASE,[4],8 u/L
same,PHOSPHORUS,[4],12.5 mg/dL
same,POTASSIUM,[4],6.34 MEQ/L
same,SODIUM,[4],144.67 MEQ/L
same,TOTAL BILIRUBIN,[4],0.13 mg/dL
same,TOTAL PROTEIN,[4],6.03 G/DL
